Some test systems named below: CAKI-1 renal; RXF 393 renal; EKVX NSCLC; MCF7 breast; SK-MEL-5 melanoma; DU-145 prostate; MDA-MB-231 breast; HOP-92 NSCLC; SK-MEL-2 melanoma; SF-268 CNS.
Experiment in all cases: inhibition of tumour cell growth, NCI panel, 48 h

From PubChem BioAssay (NCI) come the findings set out here.

Each structure is given as a SMILES string. Values joined by “and” are separate entries in the source; they are usually repeats but may differ in a detail not shown here. Identical values can stand only once.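 These data come from cells grown in 96-well plates and exposed to compound for 48 hours at five concentrations. The concentration for 50% growth inhibition is given as GI50. TGI denotes the concentration required for complete inhibition of growth.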

As for `C/C(=N\Nc1nc2ccccc2s1)c1cccnn1`, the TGI in the assay with CAKI-1 renal was more than 100 µM; in the assay on RXF 393 renal, 84.5 µM; in the assay with EKVX NSCLC, 33.5 µM; in the assay on MCF7 breast, more than 100 µM; with SK-MEL-5 melanoma it was more than 100 µM; with DU-145 prostate, more than 100 µM. In addition, the TGI was found to be 36.2 µM in the assay with MDA-MB-231 breast, 14.3 µM in the assay on HOP-92 NSCLC, 36.8 µM in the assay on SK-MEL-2 melanoma and 20.1 µM with SF-268 CNS.

For the molecule `C=C1CC=CC(C)(C)C1C/C=C(\C)C(O)CBr` (centres undefined), the TGI in the assay with CAKI-1 renal is 54.1 µM; with RXF 393 renal, more than 100 µM; with EKVX NSCLC, more than 100 µM; with MCF7 breast, more than 100 µM; in the assay on SK-MEL-5 melanoma it was more than 100 µM; in the assay with DU-145 prostate, more than 100 µM. In addition, the TGI in the assay with MDA-MB-231 breast, with HOP-92 NSCLC, with SK-MEL-2 melanoma and with SF-268 CNS was more than 100 µM in each case.

For the molecule `COn1cc(CO)c2ccccc21`, the TGI in the assay with CAKI-1 renal is more than 54.8 µM; in the assay with RXF 393 renal it was 47.8 µM; in the assay on EKVX NSCLC, more than 100 µM; in the assay with MCF7 breast it was more than 100 µM; with SK-MEL-5 melanoma, more than 100 µM; with DU-145 prostate it was more than 100 µM. The TGI with MDA-MB-231 breast, with HOP-92 NSCLC, with SK-MEL-2 melanoma and in the assay with SF-268 CNS was more than 100 µM in each case.

Take `CC1=C(C(=O)NNC(=O)CC#N)CC(C(=O)NNC(=O)CC#N)=C(C)N1`: the TGI with CAKI-1 renal, with RXF 393 renal, in the assay with EKVX NSCLC, in the assay on MCF7 breast, with SK-MEL-5 melanoma and with DU-145 prostate was more than 100 µM in each case. Further, the TGI in the assay on MDA-MB-231 breast, in the assay with HOP-92 NSCLC, in the assay on SK-MEL-2 melanoma and with SF-268 CNS was more than 100 µM in each case.

For the molecule `COCC(=O)OC1CCn2c1nc1c2C(=O)C(C)=C(NC(C)=O)C1=O` (centres undefined), the TGI in the assay on CAKI-1 renal was 32.3 µM; in the assay on RXF 393 renal, 5.9 µM and 7.55 µM; in the assay with EKVX NSCLC, 20.3 µM; in the assay with MCF7 breast, 3.53 µM and 3.75 µM; with SK-MEL-5 melanoma it was 26.8 µM; in the assay on DU-145 prostate it was 22.2 µM. The TGI in the assay with MDA-MB-231 breast is 4.71 µM; in the assay on HOP-92 NSCLC it was 2.95 µM and 4.62 µM; in the assay on SK-MEL-2 melanoma it was 13.5 µM; in the assay with SF-268 CNS, 9 µM and 22.4 µM. Also, the GI50 with EKVX NSCLC was 3.75 µM; in the assay on HOP-92 NSCLC, 1.38 µM; in the assay with SK-MEL-2 melanoma, 5.34 µM; with SF-268 CNS, 3.07 µM.

For the molecule `CC(C)(C)c1ccc2c(c1)OCc1n[nH]c(n1)COc1cc(C(C)(C)C)ccc1OCCOCCO2`, the TGI in the assay on CAKI-1 renal worked out at 14.6 µM; in the assay on RXF 393 renal, 4.56 µM; with EKVX NSCLC, 17.7 µM; in the assay on MCF7 breast, 12.8 µM; with SK-MEL-5 melanoma, 4.68 µM; in the assay on DU-145 prostate, 20.6 µM. Further, the TGI with MDA-MB-231 breast came to 25.5 µM; with HOP-92 NSCLC it was 14.8 µM; in the assay on SK-MEL-2 melanoma it was 5.27 µM; with SF-268 CNS it was 17.3 µM.

Take `O=S1(=O)c2ccccc2NC(=S)N1c1ccccc1`: the TGI in the assay on CAKI-1 renal, in the assay on RXF 393 renal, in the assay on EKVX NSCLC, with MCF7 breast, in the assay with SK-MEL-5 melanoma and with DU-145 prostate was more than 100 µM throughout. Also, the TGI with MDA-MB-231 breast was more than 100 µM; in the assay on HOP-92 NSCLC, 45.3 µM; in the assay on SK-MEL-2 melanoma it was more than 100 µM; with SF-268 CNS, more than 100 µM.

As for `O=C(O)c1cc2ccccc2c(S(=O)(=O)O)c1O`, the TGI in the assay on CAKI-1 renal, in the assay with RXF 393 renal, in the assay with EKVX NSCLC, with MCF7 breast, with SK-MEL-5 melanoma and in the assay with DU-145 prostate was more than 100 µM in each case. Also, the TGI in the assay with MDA-MB-231 breast, in the assay on HOP-92 NSCLC, with SK-MEL-2 melanoma and in the assay with SF-268 CNS was more than 100 µM in each case.

Take `CCOC(=O)Cc1nn2c(=O)cc(C)nc2s1`: the TGI with CAKI-1 renal, with RXF 393 renal, in the assay on EKVX NSCLC, with MCF7 breast, in the assay on SK-MEL-5 melanoma and in the assay on DU-145 prostate was more than 100 µM in each case. Besides, the TGI with MDA-MB-231 breast, with HOP-92 NSCLC, in the assay with SK-MEL-2 melanoma and in the assay on SF-268 CNS was more than 100 µM throughout.

`CC(C)Cc1c(C#N)c(C#N)c(N)n1Cc1ccccc1`: the TGI in the assay on CAKI-1 renal, with RXF 393 renal, with EKVX NSCLC, in the assay on MCF7 breast, in the assay on SK-MEL-5 melanoma and in the assay on DU-145 prostate was more than 100 µM throughout. The TGI in the assay with MDA-MB-231 breast, in the assay on HOP-92 NSCLC, with SK-MEL-2 melanoma and in the assay with SF-268 CNS was more than 100 µM each time.

In the case of `Clc1cccc(C2ON=C(c3ccccc3)N2C23CC4CC(CC(C4)C2)C3)c1Cl` (centres undefined), the TGI in the assay with CAKI-1 renal, in the assay on RXF 393 renal, with EKVX NSCLC, with MCF7 breast, in the assay on SK-MEL-5 melanoma and with DU-145 prostate was more than 10 µM throughout. Also, the TGI with MDA-MB-231 breast, in the assay on HOP-92 NSCLC, in the assay on SK-MEL-2 melanoma and in the assay with SF-268 CNS was more than 10 µM in each case.

As to `NNC(=O)c1cccc2c1Oc1ccccc1S2`, the TGI in the assay with CAKI-1 renal, with RXF 393 renal, in the assay on EKVX NSCLC, in the assay on MCF7 breast, in the assay on SK-MEL-5 melanoma and in the assay on DU-145 prostate was more than 100 µM in each case. Moreover, the TGI in the assay with MDA-MB-231 breast, with HOP-92 NSCLC, in the assay with SK-MEL-2 melanoma and in the assay with SF-268 CNS was more than 100 µM throughout.

Take `COc1cc(/C=C/c2cc(=O)cc(/C=C/c3ccc(O)c(OC)c3)o2)ccc1O`: the TGI in the assay with CAKI-1 renal is more than 100 µM; with RXF 393 renal it was more than 55.2 µM; in the assay with EKVX NSCLC, more than 100 µM; in the assay with MCF7 breast it was more than 100 µM; in the assay with SK-MEL-5 melanoma it was more than 100 µM; in the assay on DU-145 prostate, more than 100 µM. Moreover, the TGI with MDA-MB-231 breast, with HOP-92 NSCLC, in the assay on SK-MEL-2 melanoma and in the assay with SF-268 CNS was more than 100 µM throughout.

As to `COc1ccc(N2C(=O)C3c4[nH]c5ccccc5c4C4C(C)CCCC4C3C2=O)cc1` (centres undefined), the TGI was more than 100 µM with CAKI-1 renal; more than 72.6 µM with RXF 393 renal; more than 100 µM in the assay on EKVX NSCLC; more than 100 µM in the assay with MCF7 breast; more than 100 µM in the assay on SK-MEL-5 melanoma; more than 100 µM with DU-145 prostate. Besides, the TGI was 98.8 µM in the assay on MDA-MB-231 breast, more than 100 µM in the assay with HOP-92 NSCLC, more than 100 µM in the assay on SK-MEL-2 melanoma and more than 100 µM in the assay with SF-268 CNS.

On to `O=C(/C=C1\C[C@H]2C=Nc3ccccc3C(=O)N2C1)NCCCCCNC(=O)/C=C1\C[C@H]2C=Nc3ccccc3C(=O)N2C1`, for which the TGI in the assay with CAKI-1 renal is 6.38 µM; with RXF 393 renal, 11.6 µM; with EKVX NSCLC, 38.5 µM; with MCF7 breast, 33.6 µM; in the assay on SK-MEL-5 melanoma, more than 51 µM; in the assay on DU-145 prostate, 27.4 µM. For the same molecule, the TGI was 30.4 µM with MDA-MB-231 breast, 16.1 µM with HOP-92 NSCLC, 29.2 µM in the assay with SK-MEL-2 melanoma and 18.5 µM in the assay on SF-268 CNS.

Consider `OCC1OC(O[C@H]2CN3[C@H](O)[C@@H](O)[C@H](O)[C@H]3C2O)C(O)C(O)C1O` (some centres undefined), for which the TGI in the assay on CAKI-1 renal, with RXF 393 renal, with EKVX NSCLC, in the assay with MCF7 breast, with SK-MEL-5 melanoma and in the assay on DU-145 prostate was more than 100 µM throughout. The TGI in the assay with MDA-MB-231 breast, in the assay on HOP-92 NSCLC, in the assay on SK-MEL-2 melanoma and in the assay with SF-268 CNS was more than 100 µM throughout.

Take `c1ccc(-c2ccc(N=NN3CCCC3)cc2)cc1`: the TGI in the assay with CAKI-1 renal, in the assay with RXF 393 renal, in the assay on EKVX NSCLC, in the assay on MCF7 breast, with SK-MEL-5 melanoma and in the assay with DU-145 prostate was more than 100 µM in each case. The TGI with MDA-MB-231 breast, with HOP-92 NSCLC, with SK-MEL-2 melanoma and in the assay with SF-268 CNS was more than 100 µM each time.

Take `CC(O)(C(=O)N(O)c1ccc(Cl)cc1)c1ccc(Cl)cc1` (centres undefined): the TGI with CAKI-1 renal was 83.6 µM; in the assay with RXF 393 renal, 95.2 µM; in the assay with EKVX NSCLC it was more than 100 µM; in the assay with MCF7 breast, more than 100 µM; in the assay on SK-MEL-5 melanoma, 48.9 µM; in the assay with DU-145 prostate, more than 100 µM. Also, the TGI in the assay on MDA-MB-231 breast was 56.7 µM; in the assay with HOP-92 NSCLC it was 48.3 µM; in the assay with SK-MEL-2 melanoma it was 50.1 µM; in the assay with SF-268 CNS, more than 100 µM.

In the case of `COC(=O)C1=C(C)N2[C@H](C(=O)O)CS[C@@]2(C)[C@H](C(=O)OC)[C@H]1c1cccc([N+](=O)[O-])c1`, the TGI in the assay on CAKI-1 renal, with RXF 393 renal, in the assay on EKVX NSCLC, in the assay on MCF7 breast, in the assay on SK-MEL-5 melanoma and in the assay with DU-145 prostate was more than 100 µM each time. The TGI in the assay with MDA-MB-231 breast, in the assay with HOP-92 NSCLC, in the assay on SK-MEL-2 melanoma and in the assay with SF-268 CNS was more than 100 µM each time.
